Columns and labels:
[1] = system: circulating leptin levels; assay: Circulating leptin levels of leptin-resistant mice (Example 9); type: in vivo, mouse; settings: 3 weeks after flurbiprofen administration, 3 mg/kg per day orally; control 106.51±3.7122; P<0.05
Procedure: Similarly with Example 8, 4 weeks-old male mice (C57BL/6 Cr Slc) had been given high-fat diet for 6 months so that leptin resistance would be induced in the mice. Thereafter, the mice were divided into two groups (each consisting of 8 mice), and the mice of individual groups were given the following diets for 3 weeks. • Control group (Cont): normal diet (10 kcal % fat) only • Flurbiprofen-administered group (Ful): normal diet+flurbiprofen Flurbiprofen (F8514, produced by SIGMA) was diluted with drinking water so that the administration amount of flurbiprofen would be 3 mg/kg per day, and was orally administered to the mice in the form of drinking water. […] FIG. 15 is a graph showing circulating leptin levels (ng/ml) of the mice of the control group and the mice of the flurbiprofen-administered group which had been given normal diet for 3 weeks. Values in the graph of FIG. 15 are averages of circulating leptin levels (ng/ml) of mice of each group (± their standard deviations) (n=8 with respect to each group). Further, statistic analysis was carried out using t-test.

[2] = system: STAT3 phosphorylation in hypothalami; assay: Western blotting of STAT3 phosphorylation in hypothalami 30 min after leptin injection (Example 2); type: in vivo, mouse; settings: Group 4 (high-fat diet+flurbiprofen) vs Group 2; approximately 10 mg/kg per day orally, 8 weeks; 30 minutes after leptin 1 mg/kg via tail vein; significance level <1%
Procedure: 4 weeks-old male mice (C57BL/6 Cr Slc) had been given normal diet (10 kcal % fat, D12450B, produced by Research Diets, Inc.) or high-fat diet (60 kcal % fat, D12492, produced by Research Diets, Inc.). Flurbiprofen was diluted with drinking water so that the administration amount of flurbiprofen would be approximately 10 mg/kg per day, and was orally administered to the mice in the form of drinking water.
Specifically, mice were divided into four groups each consisting of 7-8 mice. Mice of individual groups were given diets as follows. • Group 1: Normal diet (10 kcal % fat) only • Group 2: High-fat diet (60 kcal % fat) only • Group 3: Normal diet+flurbiprofen • Group 4: High-fat diet+flurbiprofen
A solution prepared by solving mouse-derived leptin (450-31, produced by PeproTech Inc. or 498-OB, rmLeptin, produced by R&D systems) in physiological saline was non-orally administered via tail vein to the mice, which had been given high-fat diet or normal diet for 8 weeks. The non-oral administration was done in such a manner that the administration amount of leptin would be 1 mg/kg. As a control for leptin administration, physiological saline in equal amount was administered to the mice via tail vein.
FIGS. 4 and 5 show the result of Western blotting of STAT3 phosphorylation in hypothalami of mice 30 minutes after leptin injection. […]

GRP78 and CHOP = settings: described in Patent Literature 1; cited from earlier work
mice = assay: Body length of mice after flurbiprofen administration (Example 10); type: in vivo, mouse; settings: flurbiprofen-administered group vs control group; 3 mg/kg per day orally, 3 weeks
Procedure: Similarly with Example 8, 4 weeks-old male mice (C57BL/6 Cr Slc) had been given high-fat diet for 6 months so that leptin resistance would be induced in the mice. Thereafter, the mice were divided into two groups (each consisting of 8 mice), and the mice of individual groups were given the following diets for 3 weeks. • Control group (Cont): normal diet (10 kcal % fat) only • Flurbiprofen-administered group (Ful): normal diet+flurbiprofen Flurbiprofen (F8514, produced by SIGMA) was diluted with drinking water so that the administration amount of flurbiprofen would be 3 mg/kg per day, and was orally administered to the mice in the form of drinking water. The result of measurement of body length of the mice, to which flurbiprofen had been administered for 3 weeks, is shown in FIG. 16. FIG. 16 is a graph showing the body length (cm) of the mice of the control group and the mice of the flurbiprofen-administered group which had been given normal diet for 3 weeks. Values in the graph of FIG. 16 are averages of body lengths (cm) of mice of each group (± their standard deviations) (n=8 with respect to each group). Further, statistic analysis was carried out using t-test.

plasma leptin levels = assay: Plasma leptin levels by ELISA before and after fasting (Example 3); type: in vivo, mouse; settings: Group 4 (high-fat diet+flurbiprofen) vs Group 2, approximately 10 mg/kg per day orally, 8 weeks
Procedure: 4 weeks-old male mice (C57BL/6 Cr Slc) had been given normal diet (10 kcal % fat, D12450B, produced by Research Diets, Inc.) or high-fat diet (60 kcal % fat, D12492, produced by Research Diets, Inc.). Flurbiprofen was diluted with drinking water so that the administration amount of flurbiprofen would be approximately 10 mg/kg per day, and was orally administered to the mice in the form of drinking water. Specifically, mice were divided into four groups each consisting of 7-8 mice. Mice of individual groups were given diets as follows. • Group 1: Normal diet (10 kcal % fat) only • Group 2: High-fat diet (60 kcal % fat) only • Group 3: Normal diet+flurbiprofen • Group 4: High-fat diet+flurbiprofen 20-25 μL of blood samples before or after fasting for 28-29.5 hours were obtained from mice via tail vein, which had been given high-fat diet or normal diet for 8 weeks. […] Plasma leptin levels in the supernatants obtained by the centrifugation were measured by ELISA. […] Values in the graph of (a) of FIG. 6 are averages of plasma leptin levels of mice of each group measured before fasting (± their standard deviations) (n=7-8 with respect to each group). Similarly, values in the graph of (b) of FIG. 6 are averages of plasma leptin levels of mice of each group measured after fasting (± their standard deviations) (n=7-8 with respect to each group). […]

C[C@@H](C(=O)O)c1ccc(-c2ccccc2)c(F)c1 [flurbiprofen]
circulating leptin level [1]: 87.105 ± 5.4415 ng/mL
intensity of STAT3 phosphorylation in hypothalami [2]: significantly higher
expression of GRP78 and CHOP induced by endoplasmic reticulum stress (GRP78 and CHOP): prevented
body length (mice): no significant difference in body length
plasma leptin levels (plasma leptin levels): significantly lower plasma leptin levels

— patent US9132108B2, “Pharmaceutical composition for ameliorating and/or preventing leptin resistance, and use thereof” (HIROSHIMA UNIVERSITY, priority 2009, dated 2015)
